Laboratory results as given in patent US20240270762A1, “PENICILLIN-BINDING PROTEIN INHIBITORS” (priority 2021, published 2024).
Converted amounts (≈) assume the structure as drawn. Where two headings read alike, the source gives them in different places.

What was measured:
[1] = target: T1, PBP3 from Escherichia coli (K-12) (Escherichia coli, UniProt P0AD68); assay: Bocillin-FL fluorescence polarization competition binding, E. coli PBP3
T1 construct: made in house
How it was run: (§1)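 Purified PBPs pre-incubated with inhibitor (E. coli PBP3 1.5 μM, 30 min; P. aeruginosa PBP3 0.75 μM, A. baumannii PBP1a 1 μM and PBP3 0.2 μM, 15 min), then Bocillin-FL 0.1 μM (0.05 μM for PBP1a) added; FP read up to 60 min. EC50 = concentration halving bound Bocillin-FL.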

[2] = system: N. gonorrhoeae ATCC 49226; assay: Liquid broth MIC in Fastidious broth; settings: Neisseria gonorrhoeae
N. gonorrhoeae WHO G = assay: Liquid broth MIC in Fastidious broth; settings: Neisseria gonorrhoeae
N. gonorrhoeae WHO Z = assay: Liquid broth MIC in Fastidious broth; settings: Neisseria gonorrhoeae
P. aeruginosa CDC-0054 = assay: microbe, parasite or virus in culture; assay type: cell-based; settings: Pseudomonas aeruginosa, CDC0054, read-out: Minimum inhibitory concentration, P. aeruginosa CDC-0054
[3] = target: T2, PBP3 from Pseudomonas aeruginosa (PAO1) (Pseudomonas aeruginosa, UniProt G3XD46); assay: Bocillin-FL fluorescence polarization competition binding, P. aeruginosa PBP3; settings: Binding affinity to P. aeruginosa PBP3; fluorescence polarization competition binding assay using Bocillin-FL; read-out: P. aeruginosa PBP3 Potency
T2 construct: made in house
How it was run: as §1

A. baumannii CDC-0033 = assay: microbe, parasite or virus in culture; assay type: cell-based; settings: Acinetobacter baumannii, CDC0033, read-out: MIC, A. baumannii CDC-0033
N. gonorrhoeae FA1090 = assay: Liquid broth MIC in Fastidious broth; settings: Neisseria gonorrhoeae
N. gonorrhoeae MS11 = assay: Liquid broth MIC in Fastidious broth; settings: Neisseria gonorrhoeae
N. gonorrhoeae WHO M = assay: Liquid broth MIC in Fastidious broth; settings: Neisseria gonorrhoeae
P. aeruginosa CDC-0095 = assay: microbe, parasite or virus in culture; assay type: cell-based; settings: Pseudomonas aeruginosa, CDC0095, read-out: Minimum inhibitory concentration, P. aeruginosa CDC-0095
N. gonorrhoeae WHO K = assay: Liquid broth MIC in Fastidious broth; settings: Neisseria gonorrhoeae
[4] = ATCC49226, read-out: Minimum Inhibitory Concentration, ATCC 49226
[5] = read-out: Minimum Inhibitory Concentration, WHO G
[6] = read-out: Minimum Inhibitory Concentration, WHO Z
[7] = FA1090, read-out: Minimum Inhibitory Concentration, FA 1090
[8] = MS11, read-out: Minimum Inhibitory Concentration, MS11
[9] = read-out: Minimum Inhibitory Concentration, WHO M
[10] = read-out: Minimum Inhibitory Concentration, WHO K
[11] = ATCC49226, read-out: Minimum Inhibitory Concentration (MIC), N. gonorrhoeae ATCC 49226
[12] = read-out: Minimum Inhibitory Concentration (MIC), N. gonorrhoeae WHO G
[13] = read-out: Minimum Inhibitory Concentration (MIC), N. gonorrhoeae WHO Z
[14] = FA1090, read-out: Minimum Inhibitory Concentration (MIC), N. gonorrhoeae FA 1090
[15] = MS11, read-out: Minimum Inhibitory Concentration (MIC), N. gonorrhoeae MS11
[16] = read-out: Minimum Inhibitory Concentration (MIC), N. gonorrhoeae WHO M
[17] = read-out: Minimum Inhibitory Concentration (MIC), N. gonorrhoeae WHO K

T1 sequence (P0AD68 1-577): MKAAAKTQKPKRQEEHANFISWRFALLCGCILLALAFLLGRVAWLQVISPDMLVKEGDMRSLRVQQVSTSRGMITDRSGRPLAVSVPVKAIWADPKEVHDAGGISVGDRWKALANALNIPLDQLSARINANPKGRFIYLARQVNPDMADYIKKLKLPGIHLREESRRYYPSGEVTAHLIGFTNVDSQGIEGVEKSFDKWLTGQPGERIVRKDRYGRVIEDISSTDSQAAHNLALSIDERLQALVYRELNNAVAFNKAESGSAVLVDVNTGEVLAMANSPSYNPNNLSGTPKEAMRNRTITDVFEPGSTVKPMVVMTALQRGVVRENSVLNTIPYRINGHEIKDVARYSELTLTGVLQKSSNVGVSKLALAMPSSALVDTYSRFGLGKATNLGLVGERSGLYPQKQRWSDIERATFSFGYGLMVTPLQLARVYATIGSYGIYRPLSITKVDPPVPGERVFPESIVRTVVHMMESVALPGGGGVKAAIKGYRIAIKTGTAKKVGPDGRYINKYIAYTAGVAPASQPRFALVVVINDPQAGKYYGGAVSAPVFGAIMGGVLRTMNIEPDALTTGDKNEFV
T2 sequence (G3XD46 whole entry): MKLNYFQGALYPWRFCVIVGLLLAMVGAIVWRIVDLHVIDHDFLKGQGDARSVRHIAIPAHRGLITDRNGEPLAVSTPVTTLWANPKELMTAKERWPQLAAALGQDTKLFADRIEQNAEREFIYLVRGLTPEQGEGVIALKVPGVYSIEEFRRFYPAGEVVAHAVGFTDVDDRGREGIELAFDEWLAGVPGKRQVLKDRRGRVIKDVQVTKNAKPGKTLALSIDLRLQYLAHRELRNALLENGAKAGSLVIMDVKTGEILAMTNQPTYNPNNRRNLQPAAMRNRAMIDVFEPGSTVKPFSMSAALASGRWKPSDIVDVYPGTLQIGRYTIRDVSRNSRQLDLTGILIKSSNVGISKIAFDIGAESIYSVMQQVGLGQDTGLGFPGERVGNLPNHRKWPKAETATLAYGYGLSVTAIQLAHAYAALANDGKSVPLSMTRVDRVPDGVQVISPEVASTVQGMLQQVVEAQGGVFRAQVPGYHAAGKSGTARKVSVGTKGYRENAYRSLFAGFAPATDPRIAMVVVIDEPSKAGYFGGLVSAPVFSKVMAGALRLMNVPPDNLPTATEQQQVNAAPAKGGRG

| Compound | EC50 [1] [µM] | MIC [2, 4] [µg/mL] | MIC (N. gonorrhoeae WHO G; [5]) [µg/mL] | MIC (N. gonorrhoeae WHO Z; [6]) [µg/mL] | MIC (P. aeruginosa CDC-0054) [µg/mL] | IC50 [3] [µM] | MIC (A. baumannii CDC-0033) [µg/mL] | MIC (N. gonorrhoeae FA1090; [7]) [µg/mL] | MIC (N. gonorrhoeae MS11; [8]) [µg/mL] | MIC (N. gonorrhoeae WHO M; [9]) [µg/mL] | MIC (P. aeruginosa CDC-0095) [µg/mL] | MIC (N. gonorrhoeae WHO K; [10]) [µg/mL] | MIC [2, 11] [µg/mL] | MIC (N. gonorrhoeae WHO G; [12]) [µg/mL] | MIC (N. gonorrhoeae WHO Z; [13]) [µg/mL] | MIC (N. gonorrhoeae FA1090; [14]) [µg/mL] | MIC (N. gonorrhoeae MS11; [15]) [µg/mL] | MIC (N. gonorrhoeae WHO M; [16]) [µg/mL] | MIC (N. gonorrhoeae WHO K; [17]) [µg/mL] |
| --- | --- | --- | --- | --- | --- | --- | --- | --- | --- | --- | --- | --- | --- | --- | --- | --- | --- | --- | --- |
| O=C(NCCN1CCN(C(=O)NC(C(=O)N[C@H]2Cc3ccc(F)c(C(=O)O)c3OB2O)c2cc(F)c(O)c(O)c2Cl)C1=O)Nc1cccnc1 (stereo partly drawn) [Example 251, (3R)-3-(2-(2-chloro-5-fluoro-3,4-dihydroxyphenyl)-2-(2-oxo-3-(2-(3-(pyridin-3-yl)ureido)ethyl)imidazolidine-1-carboxamido)acetamido)-7-fluoro-2-hydroxy-3,4-dihydro-2H-benzo[e][1,2]oxaborinine-8-carboxylic acid] | < 10 | 16 to 32 (≈ 22.3 to 44.6 µM) | 16 to 32 (≈ 22.3 to 44.6 µM) | 16 to 32 (≈ 22.3 to 44.6 µM) | 8 to 16 (≈ 11.1 to 22.3 µM) | < 10 | 2 to 4 (≈ 2.79 to 5.57 µM) | 4 to 8 (≈ 5.57 to 11.1 µM) | 16 to 32 (≈ 22.3 to 44.6 µM) | 16 to 32 (≈ 22.3 to 44.6 µM) | 8 to 16 (≈ 11.1 to 22.3 µM) | > 64 |  |  |  |  |  |  |  |
| O=C(NCCN1CCN(C(=O)NC(C(=O)N[C@H]2Cc3ccc(F)c(C(=O)O)c3OB2O)c2cc(F)c(O)c(O)c2Cl)C1=O)c1ccccc1 (stereo partly drawn) [Example 242, (3R)-3-(2-(3-(2-benzamidoethyl)-2-oxoimidazolidine-1-carboxamido)-2-(2-chloro-5-fluoro-3,4-dihydroxyphenyl)acetamido)-7-fluoro-2-hydroxy-3,4-dihydro-2H-benzo[e][1,2]oxaborinine-8-carboxylic acid] | < 10 |  |  |  | 2 to 4 (≈ 2.85 to 5.7 µM) | < 10 | 2 to 4 (≈ 2.85 to 5.7 µM) |  |  |  | 2 to 4 (≈ 2.85 to 5.7 µM) |  | 16 to 32 (≈ 22.8 to 45.6 µM) | 16 to 32 (≈ 22.8 to 45.6 µM) | 16 to 32 (≈ 22.8 to 45.6 µM) | 1 to 2 (≈ 1.42 to 2.85 µM) | 16 to 32 (≈ 22.8 to 45.6 µM) | 16 to 32 (≈ 22.8 to 45.6 µM) | > 64 |
| O=C(NCCS(=O)(=O)N1CCN(C(=O)NC(C(=O)N[C@H]2Cc3ccc(F)c(C(=O)O)c3OB2O)c2cc(F)c(O)c(O)c2Cl)C1=O)c1ccccc1 (stereo partly drawn) [Example 260, (3R)-3-(2-(3-((2-benzamidoethyl)sulfonyl)-2-oxoimidazolidine-1-carboxamido)-2-(2-chloro-5-fluoro-3,4-dihydroxyphenyl)acetamido)-7-fluoro-2-hydroxy-3,4-dihydro-2H-benzo[e][1,2]oxaborinine-8-carboxylic acid] | < 10 | 16 to 32 (≈ 20.9 to 41.8 µM) | 16 to 32 (≈ 20.9 to 41.8 µM) | 16 to 32 (≈ 20.9 to 41.8 µM) | 2 to 4 (≈ 2.61 to 5.22 µM) | < 10 | 2 to 4 (≈ 2.61 to 5.22 µM) | 4 to 8 (≈ 5.22 to 10.4 µM) | 16 to 32 (≈ 20.9 to 41.8 µM) | 16 to 32 (≈ 20.9 to 41.8 µM) | 2 to 4 (≈ 2.61 to 5.22 µM) | > 64 |  |  |  |  |  |  |  |
| O=C(NCCN1CCN(C(=O)NC(C(=O)N[C@H]2Cc3ccc(F)c(C(=O)O)c3OB2O)c2cc(F)c(O)c(O)c2Cl)C(=O)C1=O)Nc1ccc(O)cc1 (stereo partly drawn) [Example 219, (3R)-3-(2-(2-chloro-5-fluoro-3,4-dihydroxyphenyl)-2-(4-(2-(3-(4-hydroxyphenyl)ureido)ethyl)-2,3-dioxopiperazine-1-carboxamido)acetamido)-7-fluoro-2-hydroxy-3,4-dihydro-2H-benzo[e][1,2]oxaborinine-8-carboxylic acid] | < 10 |  |  |  | 8 to 16 (≈ 10.5 to 21 µM) | < 10 | 8 to 16 (≈ 10.5 to 21 µM) |  |  |  | 8 to 16 (≈ 10.5 to 21 µM) |  | 16 to 32 (≈ 21 to 42.1 µM) | 16 to 32 (≈ 21 to 42.1 µM) | 16 to 32 (≈ 21 to 42.1 µM) | 1 to 2 (≈ 1.31 to 2.63 µM) | 16 to 32 (≈ 21 to 42.1 µM) | 4 to 8 (≈ 5.26 to 10.5 µM) | > 64 |
| O=C(CN1CCN(C(=O)NC(C(=O)N[C@H]2Cc3ccc(F)c(C(=O)O)c3OB2O)c2cc(F)c(O)c(O)c2Cl)C(=O)C1=O)NCc1cccnc1 (stereo partly drawn) [Example 240, (3R)-3-(2-(2-chloro-5-fluoro-3,4-dihydroxyphenyl)-2-(2,3-dioxo-4-(2-oxo-2-((pyridin-3-ylmethyl)amino)ethyl)piperazine-1-carboxamido)acetamido)-7-fluoro-2-hydroxy-3,4-dihydro-2H-benzo[e][1,2]oxaborinine-8-carboxylic acid] | < 10 |  |  |  | < 1 | < 10 | 2 to 4 (≈ 2.74 to 5.47 µM) |  |  |  | 2 to 4 (≈ 2.74 to 5.47 µM) |  | 16 to 32 (≈ 21.9 to 43.8 µM) | 4 to 8 (≈ 5.47 to 10.9 µM) | 16 to 32 (≈ 21.9 to 43.8 µM) | 1 to 2 (≈ 1.37 to 2.74 µM) | 16 to 32 (≈ 21.9 to 43.8 µM) | 4 to 8 (≈ 5.47 to 10.9 µM) | > 64 |
